Test results: patent publication US20100105652A1, “PURINES AS CYSTEINE PROTEASE INHIBITORS” (Glaxo Group Limited, priority 2007, published 2010)
Structures can show the parent of a compound that is named as a salt.

How the values were obtained:
Falcipain-3 = target: T1, Falcipain-3 (Plasmodium falciparum, UniProt Q8IIL0); test: falcipain-3 enzymatic assay (fluorogenic substrate H-D-VLR-AFC, endpoint); type: biochemical; settings: parasitic recombinant enzyme, pH 5.5, quenched after 60 minutes
T1 sequence (Q8IIL0 243-492): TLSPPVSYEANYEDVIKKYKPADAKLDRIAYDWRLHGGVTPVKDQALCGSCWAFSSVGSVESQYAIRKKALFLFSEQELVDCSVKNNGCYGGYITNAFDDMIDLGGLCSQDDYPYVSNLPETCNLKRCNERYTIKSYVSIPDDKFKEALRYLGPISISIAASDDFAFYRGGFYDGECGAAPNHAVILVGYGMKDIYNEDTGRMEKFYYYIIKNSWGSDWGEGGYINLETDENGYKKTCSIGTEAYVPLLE
Procedure: (§1) 1) Determination of Falcipain-2, Falcipain-3, Vivapain-2, and Cathepsin S Proteolytic Catalytic Activity
(§2) Assays for Falcipain-2, Falcipain-3, and Vivapain-2 are carried out with parasitic recombinant enzymes. Cathepsins S is carried out with human recombinant enzymes. Standard assay conditions for the determination of kinetic constants used a fluorogenic peptide substrate, typically H-D-VLR-AFC (Falcipain-2, Falcipain-3, Vivapain-2) or KQKLR-AMC (Cathepsin S) and are determined in 100 mM sodium acetate, pH 5.5, containing 10 mM DTT and 0.5 mM CHAPS (Falcipain-2, Falcipain-3, Vivapain-2), or 50 mM MES, pH 6.5, containing 0.5 mM CHAPS, 10 mM L-CYS, 5 mM EDTA (Cathepsin S). Stock substrate solutions are prepared at 20 mM in DMSO. The activity assays contained 30 uM substrate (Falcipain-2, Falcipain-3, Vivapain-2), and 30 uM substrate (Cathepsin S). All assays contained 1% DMSO. […] All assays are conducted at ambient temperature as end point assays being quenched after 60 minutes with the exception of Cathepsin S at 90 minutes, with 16.6 uM E-64 in 1% DMSO. Product formation (AFC or AMC) is determined from fluorescence (excitation at 405 nm; emission at 530 nm, AFC, or excitation at 360 nm; emission at 460 nm, AMC) monitored with a LJL Aquest (Molecular Devices) fluorescent plate reader. In the case of kinetic reads (used in mechanism of action studies), the reaction is not quenched but is read in the plate reader every 3 minutes for approximately 90 minutes. In addition, the mechanism of action studies for Falcipain-2 utilize Z-LR-AMC as the substrate. Product formation is determined from the fluorescence of AMC, measured with a LJL Acquest (Molecular Devices) fluorescent plate reader (excitation at 360 nm; emission at 460 nm).
(§3) Potential inhibitors are evaluated using the quenched read (endpoint) method. Assays are carried out in the presence of variable concentrations of test compound. Reactions are initiated by addition of enzyme and substrate to wells containing inhibitor stamped in 100% DMSO. For endpoint assays, the reaction is quenched with the addition of E64. Dose response data is fit to an IC50 curve with preset fitting tools according to equation 1:
(§4) y=a+(b−a)/(1+(10^X/10^C)^d) (1)
(§5) where y is the response at a particular inhibitor concentration x, a is the minimum response value, b is the maximum response value, c is the IC50, and d is the slope of the IC50 curve. Assuming the compound is a competitive inhibitor, the apparent KI can be calculated from IC50, as shown in equation 2: […]

[1] = system: Plasmodium falciparum parasite; test: whole cell activity against the Plasmodium falciparum parasite; type: cell-based
From the text: Equation 7 describes the apparent KI for competitive compounds and was substituted into equations 5 and 6 to generate the relevant binding constants from the fitting routine. In addition, the initial and final velocities were fit to equation 3 to further define the binding mechanism and potency. A complete discussion of this kinetic treatment has been fully described (Morrison et al., Adv. Enzymol. Relat. Areas Mol. Biol., 1988, 61, 201). 2) Determination of Whole Cell Activity Against the Plasmodium falciparum Parasite Compounds can be evaluated for whole cell activity against the Plasmodium falciparum parasite according to the procedure described in Sijwali S, and Rosenthal P. J., (2004) Proceedings of the National Academy of Sciences of the United States of America (PNAS) 101(13), 4384-4389 (see in particular “Measurement of Parasite Growth rates and Inhibitor Sensitivity” on page 4385); IC50 values can be calculated as described in Singh A. and Rosenthal P. J., (2001) Antimicrobial Agents and Chemotherapy 45(3), 949-951 (see in particular page 950, first column); synchronised parasites can be prepared as described in Divo A. A. et al., (1985) Protozool. 32, 59-64.

Falcipain-2 = target: T2, Falcipain-2 (Plasmodium falciparum, UniProt Q8I6U4); test: falcipain-2 enzymatic assay (fluorogenic substrate H-D-VLR-AFC, endpoint); type: biochemical; settings: parasitic recombinant enzyme, pH 5.5, quenched after 60 minutes
T2 sequence (Q8I6U4 244-484): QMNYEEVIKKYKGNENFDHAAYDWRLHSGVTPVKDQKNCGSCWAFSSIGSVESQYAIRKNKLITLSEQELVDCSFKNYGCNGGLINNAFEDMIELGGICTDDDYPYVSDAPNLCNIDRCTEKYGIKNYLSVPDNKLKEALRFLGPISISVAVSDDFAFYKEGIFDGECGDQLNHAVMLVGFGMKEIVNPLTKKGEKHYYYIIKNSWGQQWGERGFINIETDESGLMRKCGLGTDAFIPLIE
Procedure: as §1, §2, §3, §4, §5

IC50 (Falcipain-3)	IC50 [1]	IC50 (Falcipain-2)	SMILES
15 to 150 nM	15 to 150 nM	2.5 to 15 nM	CN(C)CCCn1cnc2c(N(NC(=O)c3ccc(CN4CCN(C)CC4)cc3)C3CCCCC3)nc(C#N)nc21 [Example 31, N′-{2-cyano-9-[3-(dimethylamino)propyl]-9H-purin-6-yl}-N′-cyclo hexyl-4-[(4-methyl-1-piperazinyl)methyl]benzohydrazide trifluoroacetate]
15 to 150 nM	250 to 400 nM	2.5 to 15 nM	CN1CCN(c2ccc(C(=O)NN(c3nc(C#N)nc4c3ncn4C)C3CCCC3)cc2)CC1 [Example 32, N′-(2-cyano-9-methyl-9H-purin-6-yl)-N′-cyclopentyl-4-(4-methyl-1-piperazinyl)benzohydrazide trifluoroacetate]
15 to 150 nM	15 to 150 nM	1 to 2.5 nM	CN1CCN(c2cccc(C(=O)NN(c3nc(C#N)nc4c3ncn4C)C3CCCC3)c2)CC1 [Example 33, N′-(2-cyano-9-methyl-9H-purin-6-yl)-N′-cyclopentyl-3-(4-methyl-1-piperazinyl)benzohydrazide trifluoroacetate]
15 to 150 nM	15 to 150 nM	1 to 2.5 nM	CN1CCN(Cc2ccc(C(=O)NN(c3nc(C#N)nc4c3ncn4C(=O)N3CCN(C)CC3)C3CCCC3)cc2)CC1 [Example 34, N′-{2-cyano-9-[(4-methyl-1-piperazinyl)carbonyl]-9H-purin-6-yl}-N′-cyclopentyl-4-[(4-methyl-1-piperazinyl)methyl]benzohydrazide trifluoroacetate]
15 to 150 nM	15 to 150 nM	2.5 to 15 nM	CN1CCN(c2cccc(C(=O)NN(c3nc(C#N)nc4c3ncn4C)C3CCCCC3)c2)CC1 [Example 36, N′-(2-cyano-9-methyl-9H-purin-6-yl)-N′-cyclohexyl-3-(4-methyl-1-piperazinyl)benzohydrazide trifluoroacetate]
2.5 to 15 nM	15 to 150 nM	≤ 1 nM	CN1CCN(Cc2ccc(C(=O)NN(c3nc(C#N)nc4c3ncn4C(=O)N3CCN(C)CC3)C3CCCCC3)cc2)CC1 [Example 38, N′-{2-cyano-9-[(4-methyl-1-piperazinyl)carbonyl]-9H-purin-6-yl}-N′-cyclohexyl-4-[(4-methyl-1-piperazinyl)methyl]benzohydrazide trifluoroacetate]
250 to 400 nM	15 to 150 nM	2.5 to 15 nM	CN(C)CCn1cnc2c(N(NC(=O)c3ccc(CN4CCN(C)CC4)cc3)C3CCCC3)nc(C#N)nc21 [Example 40, N′-{2-cyano-9-[2-(dimethylamino)ethyl]-9H-purin-6-yl}-N′-cyclopentyl-4-[(4-methyl-1-piperazinyl)methyl]benzohydrazide trifluoroacetate]
15 to 150 nM	15 to 150 nM	2.5 to 15 nM	CN(C)CCn1cnc2c(N(NC(=O)c3cccc(-c4ccc(CN5CCN(C)CC5)cc4)n3)C3CCCC3)nc(C#N)nc21 [Example 42, N′-{2-cyano-9-[2-(dimethylamino)ethyl]-9H-purin-6-yl}-N′-cyclopentyl-6-{4-[(4-methyl-1-piperazinyl)methyl]phenyl}-2-pyridinecarbohydrazide trifluoroacetate]
15 to 150 nM	15 to 150 nM	2.5 to 15 nM	CN(C)CCn1cnc2c(N(NC(=O)c3ccc(CN4CCN(C)CC4)cc3)C3CCCCC3)nc(C#N)nc21 [Example 44, N′-{2-cyano-9-[2-(dimethylamino)ethyl]-9H-purin-6-yl}-N′-cyclohexyl-4-[(4-methyl-1-piperazinyl)methyl]benzohydrazide trifluoroacetate]
250 to 400 nM	150 to 250 nM	2.5 to 15 nM	CN1CCN(Cc2ccc(C(=O)NN(c3nc(C#N)nc4c3ncn4C)C3CCCC3)cc2)CC1 [Example 47, N′-(2-cyano-9-methyl-9H-purin-6-yl)-N′-cyclopentyl-4-[(4-methyl-1-piperazinyl)methyl]benzohydrazide trifluoroacetate]

The remaining lines, values behind:

SMILES	IC50 (Falcipain-3)	IC50 [1]	IC50 (Falcipain-2)
CN1CCN(C(=O)n2cnc3c(N(NC(=O)OC(C)(C)C)C4CCCCC4)nc(C#N)nc32)CC1 [Example 35, 1,1-dimethylethyl 2-{2-cyano-9-[(4-methyl-1-piperazinyl)carbonyl]-9H-purin-6-yl}-2-cyclohexylhydrazinecarboxylate trifluoroacetate]	1 to 2.5 nM	150 to 250 nM	≤ 1 nM
CN(C)CCCn1cnc2c(N(NC(=O)c3cccc(N4CCN(C)CC4)c3)C3CCCC3)nc(C#N)nc21 [Example 37, N′-{2-cyano-9-[3-(dimethylamino)propyl]-9H-purin-6-yl}-N′-cyclo pentyl-3-4-methyl-1-piperazinyl)benzohydrazide trifluoroacetate]	150 to 250 nM	2.5 to 15 nM	1 to 2.5 nM
CN(C)CCn1cnc2c(N(NC(=O)OC(C)(C)C)C3CCCC3)nc(C#N)nc21 [Example 39, 1,1-dimethylethyl 2-{2-cyano-9-[2-(dimethylamino)ethyl]-9H-purin-6-yl}-2-cyclopentylhydrazinecarboxylate trifluoroacetate]	15 to 150 nM	15 to 150 nM	2.5 to 15 nM
CN(C)CCn1cnc2c(N(NC(=O)c3cccc(N4CCN(C)CC4)c3)C3CCCC3)nc(C#N)nc21 [Example 41, N′-{2-cyano-9-[2-(dimethylamino)ethyl]-9H-purin-6-yl}-N′-cyclopentyl-3-(4-methyl-1-piperazinyl)benzohydrazide bis(trifluoroacetate)]	15 to 150 nM	15 to 150 nM	1 to 2.5 nM
CN(CCn1cnc2c(N(NC(=O)OC(C)(C)C)C3CCCC3)nc(C#N)nc21)C(C)(C)C [Example 43, 1,1-dimethylethyl 2-(2-cyano-9-{2-[(1,1-dimethylethyl)(methyl)amino]ethyl}-9H-purin-6-yl)-2-cyclopentylhydrazinecarboxylate trifluoroacetate]	15 to 150 nM	250 to 400 nM	2.5 to 15 nM
CN(C)CCn1cnc2c(N(NC(=O)c3cccc(-c4ccc(CN5CCN(C)CC5)cc4)n3)C3CCCCC3)nc(C#N)nc21 [Example 45, N′-{2-cyano-9-[2-(dimethylamino)ethyl]-9H-purin-6-yl}-N′-cyclohexyl-6-{4-[(4-methyl-1-piperazinyl)methyl]phenyl}-2-pyridinecarbohydrazide trifluoroacetate]	15 to 150 nM	15 to 150 nM	2.5 to 15 nM
CN(C)CCCn1cnc2c(N(NC(=O)c3cccc(-c4ccc(CN5CCN(C)CC5)cc4)n3)C3CCCCC3)nc(C#N)nc21 [Example 46, N′-{2-cyano-9-[3-(dimethylamino)propyl]-9H-purin-6-yl}-N′-cyclo hexyl-6-{4-[(4-methyl-1-piperazinyl)methyl]phenyl}-2-pyridinecarbohydrazide trifluoroacetate]	15 to 150 nM	15 to 150 nM	2.5 to 15 nM
